The NIST ThermoML archive (doi:10.1016/j.fluid.2015.01.002)
Numbers after ± are expanded uncertainties.

Tests used:
[1] = xn = mol fraction of the nth substance listed; conditions: 298.15 K, 101 kPa, Liquid, Vibrating tube method
[2] = refractive index (Na D-line) (dimensionless); xn = mol fraction of the nth substance listed; conditions: 298.15 K, 101 kPa, Liquid, Standard Abbe refractometry
[3] = refractive index (Na D-line) (dimensionless); conditions: 298.15 K; 101.33 kPa; Liquid; Standard Abbe refractometry
[4] = 298.15 K; 101.33 kPa; Liquid; Vibrating tube method

COCCO [2-methoxyethan-1-ol] + Cc1ccc(C)cc1
Conditions | mass density, [1] [kg/m3] | refractive index, [2]
x2 = 0.0499 | 952.02 ± 0.13 | 1.4069 ± 0.0004
x2 = 0.0999 | 944.39 ± 0.13 | 1.4136 ± 0.0004
x2 = 0.1999 | 930.07 ± 0.14 | 1.4253 ± 0.0004
x2 = 0.3 | 917.28 ± 0.14 | 1.4367 ± 0.0004
x2 = 0.3999 | 905.75 ± 0.14 | 1.4462 ± 0.0004
x2 = 0.5001 | 895.38 ± 0.14 | 1.4557 ± 0.0004
x2 = 0.6 | 885.92 ± 0.14 | 1.4641 ± 0.0004
x2 = 0.6999 | 877.19 ± 0.14 | 1.4717 ± 0.0004
x2 = 0.7999 | 869.23 ± 0.14 | 1.4793 ± 0.0004
x2 = 0.8999 | 862.2 ± 0.14 | 1.4862 ± 0.0004
x2 = 0.9499 | 859.28 ± 0.14 | 1.4895 ± 0.0004

Cc1ccccc1 [toluene]
Conditions | mass density [kg/m3] | refractive index
[3] | – | 1.49367 ± 0.001
[4] | 862.34 ± 0.14 | –

COCCO [2-methoxyethan-1-ol] + c1ccccc1
Conditions | mass density, [1] [kg/m3] | refractive index, [2]
x2 = 0.05 | 955.11 ± 0.13 | 1.4054 ± 0.0004
x2 = 0.0998 | 950.35 ± 0.13 | 1.4105 ± 0.0004
x2 = 0.2001 | 940.54 ± 0.14 | 1.4193 ± 0.0004
x2 = 0.2998 | 930.95 ± 0.14 | 1.4286 ± 0.0004
x2 = 0.4 | 921.55 ± 0.14 | 1.4385 ± 0.0004
x2 = 0.4999 | 912.55 ± 0.14 | 1.4486 ± 0.0004
x2 = 0.5999 | 903.8 ± 0.14 | 1.4586 ± 0.0004
x2 = 0.7 | 895.3 ± 0.14 | 1.4679 ± 0.0004
x2 = 0.8 | 887.18 ± 0.14 | 1.477 ± 0.0004
x2 = 0.8998 | 879.76 ± 0.14 | 1.4864 ± 0.0004
x2 = 0.95 | 876.36 ± 0.14 | 1.4916 ± 0.0004

CC#N [acetonitrile]
Conditions | mass density [kg/m3] | refractive index
[3] | – | 1.34143 ± 0.00032
[4] | 776.64 ± 0.16 | –

Cc1ccc(C)cc1 [1,4-dimethylbenzene]
Conditions | mass density [kg/m3] | refractive index
[3] | – | 1.49281 ± 0.001
[4] | 856.78 ± 0.14 | –

c1ccccc1 [benzene]
Conditions | mass density [kg/m3] | refractive index
[3] | – | 1.49749 ± 0.001
[4] | 873.73 ± 0.14 | –

CC#N [acetonitrile] + c1ccccc1
Conditions | mass density, [1] [kg/m3] | refractive index, [2]
x2 = 0.05 | 784.35 ± 0.15 | 1.3523 ± 0.0003
x2 = 0.1 | 791.68 ± 0.15 | 1.3638 ± 0.0003
x2 = 0.2 | 805.24 ± 0.15 | 1.3823 ± 0.0003
x2 = 0.2998 | 817.45 ± 0.15 | 1.402 ± 0.0004
x2 = 0.4001 | 828.54 ± 0.15 | 1.4217 ± 0.0004
x2 = 0.4999 | 838.46 ± 0.15 | 1.4378 ± 0.0004
x2 = 0.6002 | 847.41 ± 0.15 | 1.4531 ± 0.0004
x2 = 0.7004 | 855.36 ± 0.14 | 1.466 ± 0.0004
x2 = 0.7997 | 862.34 ± 0.14 | 1.4789 ± 0.0004
x2 = 0.9002 | 868.48 ± 0.14 | 1.4892 ± 0.0004
x2 = 0.9506 | 871.14 ± 0.14 | 1.4929 ± 0.0004

COCCO [2-methoxyethan-1-ol]
Conditions | mass density [kg/m3] | refractive index
[3] | – | 1.39981 ± 0.00033
[4] | 959.73 ± 0.13 | –

CCCCCCCCCCCCCCCC [hexadecane]
Conditions | mass density [kg/m3] | refractive index
[3] | – | 1.43225 ± 0.001
[4] | 770.3 ± 0.16 | –

CC#N [acetonitrile] + Cc1ccccc1
Conditions | mass density, [1] [kg/m3] | refractive index, [2]
x2 = 0.0499 | 784.94 ± 0.15 | 1.3557 ± 0.0003
x2 = 0.1 | 792.57 ± 0.15 | 1.3686 ± 0.0003
x2 = 0.2 | 806.07 ± 0.15 | 1.3917 ± 0.0003
x2 = 0.3 | 817.61 ± 0.15 | 1.412 ± 0.0004
x2 = 0.4 | 827.52 ± 0.15 | 1.4308 ± 0.0004
x2 = 0.4999 | 835.99 ± 0.15 | 1.4457 ± 0.0004
x2 = 0.6 | 843.26 ± 0.15 | 1.458 ± 0.0004
x2 = 0.6999 | 849.43 ± 0.14 | 1.4683 ± 0.0004
x2 = 0.8001 | 854.74 ± 0.14 | 1.4785 ± 0.0004
x2 = 0.9 | 858.99 ± 0.14 | 1.487 ± 0.0004
x2 = 0.9498 | 860.78 ± 0.14 | 1.4907 ± 0.0004

COCCO [2-methoxyethan-1-ol] + Cc1ccccc1
Conditions | mass density, [1] [kg/m3] | refractive index, [2]
x2 = 0.05 | 953.61 ± 0.13 | 1.4048 ± 0.0004
x2 = 0.0998 | 947.42 ± 0.13 | 1.4113 ± 0.0004
x2 = 0.1999 | 935.21 ± 0.14 | 1.4233 ± 0.0004
x2 = 0.3001 | 923.65 ± 0.14 | 1.434 ± 0.0004
x2 = 0.4 | 912.84 ± 0.14 | 1.4437 ± 0.0004
x2 = 0.4999 | 902.65 ± 0.15 | 1.453 ± 0.0004
x2 = 0.6 | 893.14 ± 0.14 | 1.4616 ± 0.0004
x2 = 0.7001 | 884.22 ± 0.14 | 1.4701 ± 0.0004
x2 = 0.8 | 875.94 ± 0.14 | 1.4782 ± 0.0004
x2 = 0.9 | 868.48 ± 0.14 | 1.486 ± 0.0004
x2 = 0.9498 | 865.12 ± 0.14 | 1.4899 ± 0.0004

Cc1ccc(C)cc1 [1,4-dimethylbenzene] + CC#N
Conditions | mass density, [1] [kg/m3] | refractive index, [2]
x1 = 0.05 | 785.5 ± 0.15 | 1.3575 ± 0.0003
x1 = 0.1 | 793.4 ± 0.15 | 1.3717 ± 0.0003
x1 = 0.2 | 806.77 ± 0.15 | 1.3975 ± 0.0003
x1 = 0.3 | 817.69 ± 0.15 | 1.4181 ± 0.0004
x1 = 0.4 | 826.78 ± 0.15 | 1.4353 ± 0.0004
x1 = 0.5 | 834.35 ± 0.15 | 1.4498 ± 0.0004
x1 = 0.6 | 840.73 ± 0.14 | 1.4642 ± 0.0004
x1 = 0.7 | 846.09 ± 0.14 | 1.4757 ± 0.0004
x1 = 0.8001 | 850.43 ± 0.14 | 1.4835 ± 0.0004
x1 = 0.9001 | 854.1 ± 0.14 | 1.4889 ± 0.0004
x1 = 0.9503 | 855.52 ± 0.14 | 1.4913 ± 0.0004
